In patent US9499508B2, “2-pyrones” (MERCK PATENT GMBH, priority 2010, dated 2016):

Legend:
[1] = tested on: calmodulin-like protein (CALML5); experiment: cDNA array, gene expression of CALML5; assay type: cell-based; conditions: primary epidermal keratinocytes, 24 hours
Experimental: (§1) The assay is carried out using primary epidermal keratinocytes. […] All-trans retinoic acid is used as positive control. The cells are then cultured at 37° C. and under 5% CO2 for 24 hours.
(§2) The mRNA is isolated using the RNEASY Minikit test kit from Qiagen in accordance with the instruction manual. 1 μg of the RNA is then in each case converted into cDNA with the aid of the Firsts Strand cDNA synthesis kit from Roche. The 20 μl of cDNA obtained are diluted 1/10, and 110 μl of TaqMan™ Universal PCR Master Mix are in each case added to 110 μl of the cDNA samples. 100 μl are pipetted per slot into the Custom TaqMan™ array cards. The cards are sealed, centrifuged and then measured using the TaqMan™ 7900HT. The values obtained are standardised. Values less than or equal to −1.5 indicate moderate to strong downregulation of the expression of the genes investigated.

[2] = tested on: filaggrin (FLG); experiment: cDNA array, gene expression of FLG; assay type: cell-based; conditions: primary epidermal keratinocytes, 24 hours
Experimental: (§3) The assay is carried out using primary epidermal keratinocytes. After incubation at 37° C. and in a 5% CO2 atmosphere for 48 hours, the culture medium (DPBS and HyQtase cell detachment solution) is removed, and the test substances 4-hydroxy-6-methyl-2-pyrone Ia (40 μM) and 3-((E)-3,7-dimethylocta-2,6-dienyl)-4-hydroxy-6-methyl-2-pyrone Ii ([…]) in assay medium (keratinocytes basal medium M2 and supplement mix) are added. All-trans retinoic acid is used as positive control. The cells are then cultured at 37° C. and under 5% CO2 for 24 hours.
as §2

[3] = tested on: involucrin (IVL); experiment: cDNA array, gene expression of IVL; assay type: cell-based; conditions: primary epidermal keratinocytes, 24 hours
Experimental: as §1, §2

[4] = tested on: loricrin (LOR); experiment: cDNA array, gene expression of LOR; assay type: cell-based; conditions: primary epidermal keratinocytes, 24 hours
Experimental: as §1, §2

[5] = tested on: repetin (RPTN); experiment: cDNA array, gene expression of RPTN; assay type: cell-based; conditions: primary epidermal keratinocytes, 24 hours
Experimental: as §1, §2

[6] = tested on: calgranulin A (S100A8); experiment: cDNA array, gene expression of S100A8; assay type: cell-based; conditions: primary epidermal keratinocytes, 24 hours
Experimental: as §3, §2

[7] = tested on: calgranulin B (S100A9); experiment: cDNA array, gene expression of S100A9; assay type: cell-based; conditions: primary epidermal keratinocytes, 24 hours
Experimental: as §3, §2

[8] = tested on: transglutaminase 1 (TGM1); experiment: cDNA array, gene expression of TGM1; assay type: cell-based; conditions: primary epidermal keratinocytes, 24 hours
Experimental: as §3, §2

[9] = tested on: Corneodesmosin (CDSN); experiment: cDNA array, gene expression of CDSN; assay type: cell-based; conditions: primary epidermal keratinocytes, 24 hours
Experimental: as §3, §2
(§4) A second group of genes (Table 2) considered encodes for proteins which correlate with cell-cell connections. Corneodesmosin (CDSN), desmoglein 1 (DSG1), desmoplakin (DSP) and desmocollin 3 (DSC3) are tested, the associated regulation factors are shown in Table 2. […] The downregulation of this protein family is known for retinoids.

[10] = tested on: desmocollin 3 (DSC3); experiment: cDNA array, gene expression of DSC3; assay type: cell-based; conditions: primary epidermal keratinocytes, 24 hours
Experimental: as §3, §2, §4

[11] = tested on: desmoglein 1 (DSG1); experiment: cDNA array, gene expression of DSG1; assay type: cell-based; conditions: primary epidermal keratinocytes, 24 hours
Experimental: as §3, §2, §4

[12] = tested on: desmoplakin (DSP); experiment: cDNA array, gene expression of DSP; assay type: cell-based; conditions: primary epidermal keratinocytes, 24 hours
Experimental: as §3, §2, §4

[13] = tested on: skin explants from the lower abdomen tissue; experiment: Ex-vivo study on skin explants, histology; set-up: species or system human
Experimental: Histological explants having an average diameter of 10 mm from the lower abdomen tissue of a person are prepared. The pieces of tissue are stored in BEM medium in a moist, 5% CO2 atmosphere at 37° C. The tissue is divided into 3 batches of 6 explants each.
Batch K represents the negative control. Only the vehicle is applied to batch V. Batch P is treated with 4-hydroxy-6-methyl-2-pyrone Ia (1% in Mygliol/ethanol 80/20). 30 μl of the 1% substance solutions in Myliol/ethanol (80/20) are applied using a round filter paper and allowed to act for 2 hours. Applications are carried out on day 0, 1, 4, 6 and 7.
On the 8th day, 3 pieces of tissue from each batch are fixed in Bouin solution. After fixing for 48 hours, the samples are dehydrated by means of Leica TP 1020 and soaked in paraffin. Tissue sections with a thickness of 5 μm are produced from the paraffin blocks using a microtome and mounted on Superfrost specimen slides. The microscopic investigation is carried out using a Leica Orthoplan microscope after the tissue sections mounted on specimen slides have been stained with Masson-Goldner trichrome stain. In order to be able to assess the effect of the substances, the thickness of the epidermis or the change thereof is measured.

[14] = tested on: normal human adipocytes; experiment: Lipolysis, unesterified fatty acids liberated from adipocytes; assay type: cell-based; conditions: 2 hours; for lipolytic activity, dependence on concentration: 0.25 mM, 0.5 mM, 1 mM and 2 mM
Experimental: The study is carried out using normal human adipocytes originating from the lower abdomen biopsy of a person. The hypodermis is isolated from the biopsy and incubated at 37° C. for 30 minutes with collagenase solution. The separated adipocytes are washed and diluted with assay medium (MEM without Phenol Red, penicillin 25 UI/ml/streptomycin […], L-glutamine 2 mM, bovine serum albumin (BSA), fatty acid-free: 0.5% (p/v)).
The test solutions or the caffeine reference are added to the cell suspensions, and the mixtures are incubated at 37° C. and in a 5% CO2 atmosphere for 2 hours.
After this time, the unesterified fatty acids liberated from the samples are quantified. The measurement is carried out using a Wako NEFA-C test kit in accordance with the instruction manual.

SMILES: Cc1cc(O)cc(=O)o1 [Ia, 4-hydroxy-6-methyl-2-pyrone]
- CALML5 gene expression, standardised value ([1]; 40 μM): −3.14
- FLG gene expression, standardised value ([2]; 40 μM): 1.01
- IVL gene expression, standardised value ([3]; 40 μM): −1.76
- LOR gene expression, standardised value ([4]; 40 μM): −4.56
- RPTN gene expression, standardised value ([5]; 40 μM): −3.33
- S100A8 gene expression, standardised value ([6]; 40 μM): −1.74
- S100A9 gene expression, standardised value ([7]; 40 μM): −2.18
- TGM1 gene expression, standardised value ([8]; 40 μM): −1.26
- CDSN gene expression, regulation factor ([9]; 40 μM): −2.14
- DSC3 gene expression, regulation factor ([10]; 40 μM): −1.69
- DSG1 gene expression, regulation factor ([11]; 40 μM): −1.39
- DSP gene expression, regulation factor ([12]; 40 μM): −1.40
- collagen network in the dermis along the dermo-epidermal junction zone ([13]; 1% in Mygliol/ethanol 80/20, topical on day 0, 1, 4, 6 and 7, day 8): becomes denser
- thicker epidermis compared with the vehicle ([13]; 1% in Mygliol/ethanol 80/20, topical on day 0, 1, 4, 6 and 7, measured on the 8th day): 10%

SMILES: COc1cc(C)oc(=O)c1 [Ib, 4-Methoxy-6-methyl-2-pyrone]
- lipolytic activity, dependence on concentration [14]: increase the lipolytic activity as a function of concentration
- stimulation of lipolysis (triacylglycerin degradation) ([14]; 2 mM): 82%

SMILES: CC(C)=CCC/C(C)=C/Cc1c(O)cc(C)oc1=O [Ii, 3-((E)-3,7-Dimethylocta-2,6-dienyl)-4-hydroxy-6-methyl-2-pyrone]
- CALML5 gene expression, standardised value ([1]; 50 μM): −2.58
- FLG gene expression, standardised value ([2]; 50 μM): −4.67
- IVL gene expression, standardised value ([3]; 50 μM): −3.82
- LOR gene expression, standardised value ([4]; 50 μM): −1.59
- RPTN gene expression, standardised value ([5]; 50 μM): 1.57
- S100A8 gene expression, standardised value ([6]; 50 μM): −2.93
- S100A9 gene expression, standardised value ([7]; 50 μM): −1.48
- TGM1 gene expression, standardised value ([8]; 50 μM): −1.56
- CDSN gene expression, regulation factor ([9]; 50 μM): −13.20
- DSC3 gene expression, regulation factor ([10]; 50 μM): −1.14
- DSG1 gene expression, regulation factor ([11]; 50 μM): −8.20
- DSP gene expression, regulation factor ([12]; 50 μM): −1.53
- stimulation of lipolysis (triacylglycerin degradation) ([14]; 1 mM): −60%
- stimulation of lipolysis (triacylglycerin degradation) ([14]; 2 mM): −67%

SMILES: CCCCC(CC)Oc1cc(C)oc(=O)c1 (centres unmarked) [Ij, 4-(1-Ethylpentyloxy)-6-methyl-2-pyrone]
- lipolytic activity, dependence on concentration [14]: increase the lipolytic activity as a function of concentration
- stimulation of lipolysis (triacylglycerin degradation) ([14]; 2 mM): 57%

SMILES: CC1=C(/C=C/C(C)=C/C=C/C(C)=C/C(=O)O)C(C)(C)CCC1 [all-trans retinoic acid, All-trans retinoic acid, reference compound]
- CALML5 gene expression, standardised value ([1]; 5 μM): −2.93
- FLG gene expression, standardised value ([2]; 5 μM): −3.20
- IVL gene expression, standardised value ([3]; 5 μM): −4.05
- LOR gene expression, standardised value ([4]; 5 μM): −7.01
- RPTN gene expression, standardised value ([5]; 5 μM): −2.56
- S100A8 gene expression, standardised value ([6]; 5 μM): −3.26
- S100A9 gene expression, standardised value ([7]; 5 μM): −3.49
- TGM1 gene expression, standardised value ([8]; 5 μM): −3.56
- CDSN gene expression, regulation factor ([9]; concentration not given): −2.37
- DSC3 gene expression, regulation factor ([10]; concentration not given): −1.23
- DSG1 gene expression, regulation factor ([11]; concentration not given): −9.22
- DSP gene expression, regulation factor ([12]; concentration not given): −1.56
